Literature values in patent US20230201309A1, “COMPOSITIONS FOR THE TREATMENT OF A RESPIRATORY CONDITION” (VECTURA LIMITED, priority 2020, published 2023).

System: COVID-19

For `CCN(CCO)CCCC(C)Nc1ccnc2cc(Cl)ccc12` (centres unmarked) [hydroxychloroquine sulphate], the Hospital mortality (hospitalised COVID-19 patients, hydroxychloroquine sulphate monotherapy plus supportive care, total dose 2400 mg, 804/4,542 patients) is listed as 17.7% and the “mortality, adjusted hazard ratio (aHR) vs no-hydroxychloroquine sulphate group” value (multivariate analysis, 95% CI 0.617-0.758) is listed as 0.684.
